From US9650390B2, “Water-soluble taxane derivatives and uses thereof” (priority 2014, dated 2017)

Columns and labels:
[1] = tested on: human non-small cell lung cancer NCI-H446; assay: Inhibitory activity of larotaxel and tesetaxel derivatives on subcutaneously xenografted tumor NCI-H446 in nude mice; settings: D0 IV; for Weight change (%) D5: nude mice; for T/C (%) D20 / Tumor volume (mm^3) (D20) / Tumor inhibitory percent (%) D20 / Tumor volume (mm^3) (D0): NCI-H446 xenograft in nude mice; for Tumor inhibitory percent (%) D20: P = 0.000 vs control; for Tumor volume (mm^3) (D0): baseline at grouping (D0)
Description: Human […] NCI-H446 cells were subcutaneously inoculated into nude mice.

[2] = In vitro dissociation in blood plasma of rat; type: in vitro ADME, SD rats; settings: fresh SD rat plasma, 37° C.; for Sampling time/Dissociation percent (%) 2 min: 2 min incubation; for Sampling time/Dissociation percent (%) 5 min: 5 min incubation; for Sampling time/Dissociation percent (%) 10 min: 10 min incubation
Description: The obtained water soluble taxane derivatives of the following formulae were formulated as 0.2 mg/ml aqueous solutions. […] After 2 min, 5 min and 10 min of incubation, 0.2 ml of solutions were respectively taken from each of the samples, and added to acetonitrile (0.4 ml) cooled to −20° C. for precipitation of protein.

[3] = In vitro dissociation in blood plasma of rabbit; type: in vitro ADME, New Zealand white rabbits; settings: fresh New Zealand white rabbit plasma, 37° C.
Description: The obtained water soluble taxane derivatives of the following formulae were formulated as 0.2 mg/ml aqueous solutions. […]

[4] = SD rats, 5 mg/kg intravenous, 5 min after administration, LC-MS
Description: After 5 min of administration, 0.3 ml of venous blood was taken from the retrobulbar venous plexus of the rats, placed in heparinized tubes, and centrifuged at 11,000 rpm for 5 min. Plasma was separated, and the concentrations of the compounds in the plasma were determined by liquid chromatography □-mass spectrometry.

[5] = tested on: human prostate cancer PC-3; assay: Inhibitory activity of docetaxel derivatives on subcutaneously xenografted tumor PC-3 in nude mice; type: in vivo; settings: 14 mg/kg, D0 IV
Description: Purpose: to evaluate and compare the inhibitory activity of the water soluble docetaxel derivatives and docetaxel on subcutaneously xenografted tumor of human prostate cancer PC-3 in nude mice
Human prostate cancer PC-3 cells were subcutaneously inoculated into nude mice. After the tumor volume reached 100-150 mm^3, the animals were randomly divided into several groups, and administered with the water soluble docetaxel derivatives of the following formula and docetaxel, respectively once on the same day (D0). The tumor volume was measured 2-3 times per week, the animals were weighed and the data were recorded until day 20 (D20) after grouping.
The tumor volume (V) was calculated according to the equation: V=½×a×b^2, wherein a and b represent the length and the width, respectively.
T/C (%)=(T−T0)/(C−C0)×100, wherein T and C represent the tumor volume at the end of the experiment; and T0 and C0 represent the tumor volume at the beginning of the experiment.

[6] = D20, PC-3 xenograft in nude mice

| Structure (SMILES) | Weight change (%) D5 ([1]; 12 mg/kg) | T/C (%) D20 ([1]; 12 mg/kg) | Tumor volume (mm^3) (D20) ([1]; 12 mg/kg) | Tumor inhibitory percent (%) D20 ([1]; 12 mg/kg) | Tumor volume (mm^3) (D0) ([1]; 12 mg/kg) | mean concentration of docetaxel in the blood plasma [4] | also measured |
| --- | --- | --- | --- | --- | --- | --- | --- |
| CCN(C)CCC(F)C(=O)OC(C(=O)OC1CC2(O)C(OC(=O)c3ccccc3)C3C4(OC(C)=O)COC4CC4CC43C(=O)C(OC(C)=O)C(=C1C)C2(C)C)C(NC(=O)OC(C)(C)C)c1ccccc1.Cl [Compound C40, 2′-O-[4-N-methyl-N-ethylamino-2(R,S)-fluorobutyryl]larotaxel hydrochloride] | −9.1% | −51% | 43.2 ± 12.7 mm^3 | 122% | 112.4 ± 1.8 mm^3 | – | – |
| CC(=O)O[C@@]12CO[C@@H]1C[C@H](O)[C@@]1(C)C(=O)[C@H](O)C3=C(C)[C@@H](OC(=O)[C@H](OC(=O)C(F)CCN(C)C)[C@@H](NC(=O)OC(C)(C)C)c4ccccc4)C[C@@](O)([C@@H](OC(=O)c4ccccc4)[C@H]21)C3(C)C.Cl (stereo partly drawn) [Compound 06, 2′-O-[4-N,N-dimethylamino-2(R,S)-fluorobutyryl]docetaxel hydrochloride] | – | – | – | – | – | 1621 ng/mL | Sampling time/Dissociation percent (%) 2 min [2]: 56.4%; Sampling time/Dissociation percent (%) 5 min [2]: 91.1%; Sampling time/Dissociation percent (%) 10 min [2]: 100%; Sampling time/Dissociation percent (%) 2 min [3]: 75.6%; Sampling time/Dissociation percent (%) 5 min [3]: 98.6%; Sampling time/Dissociation percent (%) 10 min [3]: 100%; detection of the administered compound in the blood plasma [4]: cannot be detected |
| CC(=O)O[C@H]1C(=O)[C@]23C[C@H]2C[C@H]2OC[C@@]2(OC(C)=O)[C@H]3[C@H](OC(=O)c2ccccc2)[C@]2(O)C[C@H](OC(=O)[C@H](O)[C@@H](NC(=O)OC(C)(C)C)c3ccccc3)C(C)=C1C2(C)C [larotaxel, reference compound] | – | – | – | – | – | – | Weight change (%) D5 ([1]; 7 mg/kg): −8.4%; T/C (%) D20 ([1]; 7 mg/kg): −64%; Tumor volume (mm^3) (D20) ([1]; 7 mg/kg): 33.3 ± 12.4 mm^3; Tumor inhibitory percent (%) D20 ([1]; 7 mg/kg): 153%; Tumor volume (mm^3) (D0) ([1]; 7 mg/kg): 110.9 ± 2.4 mm^3 |
| CC(=O)OC12COC1CCC1(C)C3OC(CN(C)C)OC3C3=C(C)C(OC(=O)C(OC(=O)C(CCN(C)C(C)C)C(F)(F)F)C(NC(=O)OC(C)(C)C)c4ncccc4F)CC(O)(C(OC(=O)c4ccccc4)C12)C3(C)C.O=C(O)CCC(=O)O (mixture of isomers) [Compound C45, 2′-O-[4-N-methyl-N-isopropylamino-2(R,S)-2-trifluoromethylbutyryl]tesetaxel succinate] | −11.4% | −34% | 53.4 ± 12.4 mm^3 | 85% | 112.3 ± 3.1 mm^3 | – | – |
| CC(=O)OC12COC1CC(O)C1(C)C(=O)C(O)C3=C(C)C(OC(=O)C(OC(=O)C(F)CCN(C)C)C(NC(=O)OC(C)(C)C)c4ccccc4)CC(O)(C(OC(=O)c4ccccc4)C21)C3(C)C.Cl [Compound 04, 2′-O-[4-N,N-dimethylamino-2(R)-fluorobutyryl]docetaxel hydrochloride] | – | – | – | – | – | 1506 ng/mL | Sampling time/Dissociation percent (%) 2 min [2]: 58.6%; Sampling time/Dissociation percent (%) 5 min [2]: 92.6%; Sampling time/Dissociation percent (%) 10 min [2]: 100%; Sampling time/Dissociation percent (%) 2 min [3]: 80.2%; Sampling time/Dissociation percent (%) 5 min [3]: 93.5%; Sampling time/Dissociation percent (%) 10 min [3]: 100%; detection of the administered compound in the blood plasma [4]: cannot be detected |
| CC(=O)O[C@@]12CO[C@@H]1C[C@H](O)[C@@]1(C)C(=O)[C@H](O)C3=C(C)[C@@H](OC(=O)[C@H](OC(=O)[C@@H](F)CCN(C)C)[C@@H](NC(=O)OC(C)(C)C)c4ccccc4)C[C@@](O)([C@@H](OC(=O)c4ccccc4)[C@H]21)C3(C)C.Cl [Compound 05, 2′-O-[4-N,N-dimethylamino-2(S)-fluorobutyryl]docetaxel hydrochloride] | – | – | – | – | – | 1387 ng/mL | Sampling time/Dissociation percent (%) 2 min [2]: 56.4%; Sampling time/Dissociation percent (%) 5 min [2]: 91.1%; Sampling time/Dissociation percent (%) 10 min [2]: 100%; Sampling time/Dissociation percent (%) 2 min [3]: 79.3%; Sampling time/Dissociation percent (%) 5 min [3]: 91.8%; Sampling time/Dissociation percent (%) 10 min [3]: 100%; detection of the administered compound in the blood plasma [4]: cannot be detected |
| CC(=O)OC1C(=O)C23CC2CC2OCC2(OC(C)=O)C3C(OC(=O)c2ccccc2)C2(O)CC(OC(=O)C(OC(=O)C(CCN(C)C(C)C)C(F)(F)F)C(NC(=O)OC(C)(C)C)c3ccccc3)C(C)=C1C2(C)C.O=C(O)C=CC(=O)O (mixture of isomers) [Compound C41, 2′-O-[4-N-methyl-N-isopropylamino-2(R,S)-2-trifluoromethylbutyryl]larotaxel maleate] | −10.5% | −34% | 51.7 ± 11.9 mm^3 | 67% | 109.8 ± 2.9 mm^3 | – | – |
| CC(=O)O[C@@]12CO[C@@H]1C[C@H](O)[C@@]1(C)C(=O)[C@H](O)C3=C(C)[C@@H](OC(=O)[C@H](O)[C@@H](NC(=O)OC(C)(C)C)c4ccccc4)C[C@@](O)([C@@H](OC(=O)c4ccccc4)[C@H]21)C3(C)C [docetaxel, reference compound] | – | – | – | – | – | 769 ng/mL | Weight change (%) D6 ([5]; D6, nude mice): −12.3%; T/C (%) D20 [5, 6]: −27%; Tumor volume (mm^3) (D20) [5, 6]: 81.4 ± 25.1 mm^3; Tumor inhibitory percent (%) D20 ([5]; D20, PC-3 xenograft in nude mice, P = 0.000 vs control): 127%; Tumor volume (mm^3) (D0) ([5]; baseline at grouping (D0), PC-3 xenograft in nude mice): 111.5 ± 1.3 mm^3 |
| CCN(CC)CCC(F)C(=O)OC(C(=O)OC1CC2(O)C(OC(=O)c3ccccc3)C3C(C)(CCC4OCC43OC(C)=O)C3OC(CN(C)C)OC3C(=C1C)C2(C)C)C(NC(=O)OC(C)(C)C)c1ncccc1F.Cl [Compound C44, 2′-O-[4-N,N-diethylamino-2(S)-fluorobutyryl]tesetaxel hydrochloride] | – | −49% | 41.3 ± 10.9 mm^3 | 123% | 113.6 ± 2.8 mm^3 | – | – |
| CC(=O)OC12COC1CCC1(C)C3OC(CN(C)C)OC3C3=C(C)C(OC(=O)C(OC(=O)C(F)CC(C)N4CCCC4)C(NC(=O)OC(C)(C)C)c4ncccc4F)CC(O)(C(OC(=O)c4ccccc4)C12)C3(C)C.O=S(=O)(O)O (mixture of isomers) [Compound C46, 2′-O-[4-(pyrrolidin-1-yl)amino-2(R,S)-fluorovaleryl]tesetaxel sulfate] | – | −23% | 61.2 ± 14.2 mm^3 | 58% | 111.7 ± 2.8 mm^3 | – | – |
| CC(=O)O[C@@]12CO[C@@H]1CC[C@@]1(C)[C@@H]3O[C@H](CN(C)C)O[C@@H]3C3=C(C)[C@@H](OC(=O)[C@H](O)[C@@H](NC(=O)OC(C)(C)C)c4ncccc4F)C[C@@](O)([C@@H](OC(=O)c4ccccc4)[C@@H]12)C3(C)C [tesetaxel, reference compound] | – | – | – | – | – | – | T/C (%) D20 ([1]; 8 mg/kg): −58%; Tumor volume (mm^3) (D20) ([1]; 8 mg/kg): 33.7 ± 12.1 mm^3; Tumor inhibitory percent (%) D20 ([1]; 8 mg/kg): 146%; Tumor volume (mm^3) (D0) ([1]; 8 mg/kg): 112.8 ± 2.2 mm^3 |
| CC(=O)O[C@H]1C(=O)[C@]23C[C@H]2C[C@H]2OC[C@@]2(OC(C)=O)[C@H]3[C@H](OC(=O)c2ccccc2)[C@]2(O)C[C@H](OC(=O)[C@H](OC(=O)[C@H](F)CCN(C)C)[C@@H](NC(=O)OC(C)(C)C)c3ccccc3)C(C)=C1C2(C)C.Cl [Compound C39, 2′-O-[4-N,N-dimethylamino-2(R)-fluorobutyryl]larotaxel hydrochloride] | −8.5% | −62% | 34.9 ± 13.3 mm^3 | 148% | 111.5 ± 2.2 mm^3 | – | – |
| CC(=O)O[C@@]12CO[C@@H]1CC[C@@]1(C)[C@@H]3O[C@H](CN(C)C)O[C@@H]3C3=C(C)[C@@H](OC(=O)[C@H](OC(=O)[C@H](F)CCN(C)C)[C@@H](NC(=O)OC(C)(C)C)c4ncccc4F)C[C@@](O)([C@@H](OC(=O)c4ccccc4)[C@@H]12)C3(C)C.Cl [Compound C43, 2′-O-[4-N,N-dimethylamino-2(R)-fluorobutyryl]tesetaxel hydrochloride] | – | −61% | 31.8 ± 11.1 mm^3 | 153% | 111.5 ± 2.2 mm^3 | – | – |
